Results published in patent EP1900728A1 (Genecare Research Institute Co., Ltd, priority 2005, dated 2006).

Molecular target: T1, IκBα ubiquitinating enzyme (SCF complex: ROC1, Cullin1, Skp1, His-TrCP1; with E1, UbcH5b) (Homo sapiens, UniProt P62877+P63208+Q13616+Q9Y297)
T1 construct: His (polyhistidine); made in house; host or cells: insect cells (baculovirus) for the SCF complex and His-E1; E. coli for His-UBCH5b
Experiment: Measurement of ubiquitinating enzyme activity (IκBα ubiquitination, time-resolved fluorescence with Eu(K)-labeled ubiquitin and XL665-labeled anti-GST antibody)
Type: biochemical
Conditions: enzyme activity inhibition test, method (1), Table 5; read-out: EVALUATION
Experimental: Method 1: Measurement of ubiquitinating enzyme activity
A recombinant vector His-UBCH5b containing a polyhistidine tag (His) and UBCH5b was prepared. E. coli was transformed with the vector, the protein was expressed, and affinity purification was carried out using Ni-NTA agarose (Qiagen). Four types of recombinant baculoviruses (ROC1, Cullin1, Skp1, and His-TrCP1) were prepared for the SCF complex protein, insect cells were infected in quadruplicate for expression, and affinity purification was carried out using Ni-NTA agarose. Recombinant baculoviruses His-IKKβ, His-E1 were prepared. The insect cells were infected with each of those for expression, and affinity purification was carried out using Ni-NTA agarose. A recombinant vector GST-IκBα was prepared by fusing glutathione-S-transferase tag (GST) and IκBα, E. coli was transformed with the vector for the protein expression, and affinity purification was carried out using glutathione sepharose (Amersham Biosciences). Genetic transformants were prepared by PCR amplification followed by recombination, all of which were based on published human-derived sequences.
Phosphorylation reaction of IκBα was performed by incubating the above-mentioned assay buffer (50 mM Tris-HCl (pH7.4), 2 mM ATP, 5 mM MgCl2, 0.5 mM DTT, 0.1% BSA) containing IκBα and IKKβ at room temperature for 1 hour. Ubiquitination reactions were carried out as follows. Compound samples at various concentrations, ubiquitin, Eu (K)-labeled ubiquitin, E1, UbcH5b, and SCF complex were added to phosphorylated IκBα, and then this was incubated at room temperature for 30 minutes. The reaction was terminated by adding EDTA, the above-mentioned revelation buffer (100 mM phosphate buffer (pH7.0), 0.5 M KF, 0.1% BSA) containing XL665-labeled anti-GST antibody was added and this was left to stand at room temperature for 2 hours. Measurements were made using ARVO-HTS (Perkin Elmer). The ratio of fluorescence intensities at 620 nm and 665 nm (Em 665 nm/Em 620 nm x 10,000) with excitation light at 337 nm was measured.
The ubiquitination level without the addition of a compound sample was used as the control value, and the level in the absence of SCF complex was used as the blank value for the assays. Inhibitory activities of the compounds were indicated as % inhibition = 100 - (value with a compound sample added - blank value) / (control value - blank value) x 100. IC50 was indicated as the concentration of the compound showing 50% inhibition. Eu (K)-labeled ubiquitin, XL665-labeled anti-GST antibody, and XL665-labeled anti-His antibody were purchased from CIS bio international. Costar solid black plates (96 wells) were used for the assays.

T1 sequence (Q9Y297 whole entry): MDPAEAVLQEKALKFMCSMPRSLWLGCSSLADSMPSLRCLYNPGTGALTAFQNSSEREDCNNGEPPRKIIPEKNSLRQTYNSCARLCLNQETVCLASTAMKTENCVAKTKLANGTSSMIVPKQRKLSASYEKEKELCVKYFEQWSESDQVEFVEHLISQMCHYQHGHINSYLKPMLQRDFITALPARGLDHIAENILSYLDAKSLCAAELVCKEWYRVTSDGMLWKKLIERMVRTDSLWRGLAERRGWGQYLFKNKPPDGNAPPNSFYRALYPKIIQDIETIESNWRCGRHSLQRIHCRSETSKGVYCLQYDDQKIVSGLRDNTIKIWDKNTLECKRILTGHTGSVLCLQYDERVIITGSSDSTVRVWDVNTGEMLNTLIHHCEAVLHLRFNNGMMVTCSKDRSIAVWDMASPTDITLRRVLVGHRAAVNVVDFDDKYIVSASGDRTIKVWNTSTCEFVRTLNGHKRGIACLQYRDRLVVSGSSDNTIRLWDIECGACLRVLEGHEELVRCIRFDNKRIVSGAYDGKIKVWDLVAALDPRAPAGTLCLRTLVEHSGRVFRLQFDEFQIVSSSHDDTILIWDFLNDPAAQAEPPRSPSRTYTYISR
T1 sequence (Q13616 whole entry): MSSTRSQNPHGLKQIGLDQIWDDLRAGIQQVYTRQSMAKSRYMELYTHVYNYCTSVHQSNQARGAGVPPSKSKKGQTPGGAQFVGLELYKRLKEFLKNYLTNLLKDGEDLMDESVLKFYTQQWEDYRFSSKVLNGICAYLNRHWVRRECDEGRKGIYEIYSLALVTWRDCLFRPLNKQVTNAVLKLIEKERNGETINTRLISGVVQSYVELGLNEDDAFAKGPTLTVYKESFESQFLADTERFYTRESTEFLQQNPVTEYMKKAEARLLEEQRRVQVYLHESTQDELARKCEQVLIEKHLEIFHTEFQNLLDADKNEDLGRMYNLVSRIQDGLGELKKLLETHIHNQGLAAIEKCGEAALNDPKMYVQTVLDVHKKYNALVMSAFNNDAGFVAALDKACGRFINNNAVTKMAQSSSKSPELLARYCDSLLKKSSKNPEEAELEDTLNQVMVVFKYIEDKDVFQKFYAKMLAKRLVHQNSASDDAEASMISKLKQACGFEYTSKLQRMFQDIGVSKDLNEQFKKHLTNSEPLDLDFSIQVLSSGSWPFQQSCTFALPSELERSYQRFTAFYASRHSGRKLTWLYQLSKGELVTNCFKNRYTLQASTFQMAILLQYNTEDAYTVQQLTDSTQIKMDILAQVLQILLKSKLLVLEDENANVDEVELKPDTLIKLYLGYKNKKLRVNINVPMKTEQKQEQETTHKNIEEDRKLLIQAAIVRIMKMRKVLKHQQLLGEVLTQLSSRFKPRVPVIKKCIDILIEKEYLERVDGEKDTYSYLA
T1 sequence (P63208 whole entry): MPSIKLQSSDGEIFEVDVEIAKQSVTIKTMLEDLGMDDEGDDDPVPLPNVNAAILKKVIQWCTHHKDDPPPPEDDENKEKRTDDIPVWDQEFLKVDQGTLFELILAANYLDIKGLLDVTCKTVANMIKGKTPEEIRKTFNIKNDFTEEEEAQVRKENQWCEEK
T1 sequence (P62877 whole entry): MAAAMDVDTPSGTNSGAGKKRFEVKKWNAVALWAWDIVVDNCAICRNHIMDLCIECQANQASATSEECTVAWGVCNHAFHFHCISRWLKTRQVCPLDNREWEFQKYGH

SMILES	IC50
O=C(O)c1ccc(N2N=C(c3ccccn3)/C(=C/c3ccc4c(c3)OCCO4)C2=O)cc1 [Compound 292]	10 to 20 µM
COCCNC(=O)c1cccc(N2N=C(C)/C(=C/c3ccc4c(c3)OCCO4)C2=O)c1 [Compound 405]	< 40 µM
CC1=NN(c2ccc(C(=O)O)cc2)C(=O)C1=Cc1ccc(N2CCC(N3CCCC3)CC2)cc1 [Compound 450]	< 40 µM
CC1=NN(c2ccc(S(N)(=O)=O)cc2)C(=O)C1=Cc1cccc(C(=O)O)c1 [Compound 222]	10 to 20 µM
CC1=NN(c2ccc(C(=O)O)cc2)C(=O)/C1=C\c1ccsc1 [Compound 511]	< 40 µM
CC1=NN(c2cccc(C(=O)O)c2)C(=O)/C1=C\c1cccc2[nH]ccc12 [Compound 355]	< 10 µM
CC1=NN(c2ccc(S(N)(=O)=O)cc2)C(=O)/C1=C\c1ccc2occc2c1 [Compound 144]	10 to 20 µM
COC(=O)N1CCN(c2ccc(C=C3C(=O)N(c4ccc(C(=O)O)cc4)N=C3c3ccccn3)cc2)CC1 [Compound 335]	10 to 20 µM
COc1cc(/C=C2\C(=O)N(c3cccc(S(N)(=O)=O)c3)N=C2C)ccc1OS(=O)(=O)c1ccc(C)cc1 [Compound 203]	10 to 20 µM
CCCCC1=NN(c2ccccc2)C(=O)/C1=C\c1ccc(-n2cncn2)cc1 [Compound 59]	10 to 20 µM
CC1=NN(c2ccc(C(=O)N3CCOCC3)cc2)C(=O)/C1=C\c1ccc2c(c1)OCCO2 [Compound 386]	10 to 20 µM
CC1=NN(c2ccccc2)C(=O)/C1=C\c1ccc(OCC(=O)Nc2ccccc2)cc1 [Compound 205]	< 40 µM
CC1=NN(c2cccc(C(=O)N3CCC(CO)CC3)c2)C(=O)/C1=C\c1ccc2c(c1)OCCO2 [Compound 383]	< 40 µM
O=C(O)c1ccc(N2N=C(c3ccccn3)/C(=C/c3ccc(-n4cccn4)cc3)C2=O)cc1 [Compound 294]	< 40 µM
COc1ccc(C2=NN(c3ccc(C(=O)O)cc3)C(=O)/C2=C\c2ccc(-n3ccnc3)cc2)cc1OC [Compound 282]	< 40 µM
COCC1=NN(c2ccc(C(=O)O)cc2)C(=O)/C1=C\c1ccc2[nH]ccc2c1 [Compound 465]	< 10 µM
O=C1/C(=C\c2ccc(-n3cccn3)cc2)C(Cc2ccccc2)=NN1c1ccccc1 [Compound 30]	10 to 20 µM
O=C(O)c1ccc(N2N=C(Cc3ccccc3)/C(=C/c3ccc(N4CCCC4)cc3)C2=O)cc1 [Compound 269]	10 to 20 µM
CC1=NN(c2ccc(S(N)(=O)=O)cc2)C(=O)/C1=C\c1ccc(C(=O)O)cc1 [Compound 223]	10 to 20 µM

SMILES	IC50
CC1=NN(c2ccc(C(=O)O)cc2)C(=O)/C1=C\c1ccc(N2CCC(CO)CC2)cc1 [Compound 426]	10 to 20 µM
CC1=NN(c2cccc(C(=O)O)c2)C(=O)/C1=C\c1ccc(N2CCN(C(=O)c3ccoc3)CC2)cc1 [Compound 444]	< 10 µM
CC1=NN(c2cccc(C(=O)O)c2)C(=O)/C1=C\c1cccs1 [Compound 508]	< 40 µM
COCC1=NN(c2ccccc2)C(=O)/C1=C\c1ccc(-n2cccn2)cc1 [Compound 10]	< 40 µM
CC(C)(C)OC(=O)N1CCN(C(=O)C2=NN(c3ccccc3)C(=O)C2=Cc2ccc(N3CCCC3)cc2)CC1 [Compound 89]	< 40 µM
CC1=NN(c2ccc(S(N)(=O)=O)cc2)C(=O)/C1=C\c1ccc(-n2cncn2)cc1 [Compound 109]	< 40 µM
CC1=NN(c2ccc(C(=O)N(C)C)cc2)C(=O)/C1=C\c1ccc2[nH]ccc2c1 [Compound 363]	10 to 20 µM
CC1=NN(c2cccc(S(N)(=O)=O)c2)C(=O)/C1=C\c1ccc(N2CCN(c3ccc(F)cc3)CC2)cc1 [Compound 177]	10 to 20 µM
O=C(O)c1ccc(N2N=C(c3cccnc3)C(=Cc3ccc4ccccc4c3)C2=O)cc1 [Compound 345]	10 to 20 µM
CC(=O)OCc1ccc(/C=C2\C(=O)N(c3ccc(C(=O)O)cc3)N=C2C)o1 [Compound 524]	< 40 µM
CC1=NN(c2cccc(C(=O)O)c2)C(=O)/C1=C\c1ccc(N2CCN(S(C)(=O)=O)CC2)cc1 [Compound 447]	< 10 µM
Cn1cc(-c2ccc(/C=C3\C(=O)N(c4cccc(C(=O)O)c4)N=C3Cc3ccccc3)o2)cn1 [Compound 510]	< 40 µM
CC1=NN(c2ccc(C(=O)O)cc2)C(=O)C1=Cc1ccc(N2CCNCC2)cc1 [Compound 451]	10 to 20 µM
CC(=O)OCc1ccc(/C=C2\C(=O)N(c3cccc(C(=O)O)c3)N=C2C)o1 [Compound 516]	< 40 µM
CC1=NN(c2ccc(S(N)(=O)=O)cc2)C(=O)C1=Cc1cc2ccccc2n1C [Compound 142]	< 40 µM
O=C(O)c1ccc(N2N=C(Cc3ccccc3)/C(=C/c3ccc(-n4cncn4)cc3)C2=O)cc1 [Compound 276]	< 40 µM
COc1ccc(C2=NN(c3ccccc3)C(=O)/C2=C\c2ccc3ccccc3c2)cc1OC [Compound 97]	10 to 20 µM
COc1ccc(C2=NN(c3ccc(C(=O)O)cc3)C(=O)C2=Cc2ccc(-n3cccn3)cc2)cc1OC [Compound 342]	< 40 µM
COc1ccc(C2=NN(c3ccccc3)C(=O)C2=Cc2ccc(CO)o2)cc1OC [Compound 35]	< 40 µM

Now from value to molecule:

IC50	SMILES
10 to 20 µM	CC1=NN(c2cccc(C(=O)NC[C@H](C)O)c2)C(=O)/C1=C\c1ccc2c(c1)OCCO2 [Compound 401]
10 to 20 µM	CC1=NN(c2ccc(C(=O)O)cc2)C(=O)/C1=C\c1cccc2nccnc12 [Compound 331]
< 10 µM	CC1=NN(c2ccc(C(=O)N3CCC(CO)CC3)cc2)C(=O)/C1=C\c1ccc2[nH]ccc2c1 [Compound 361]
< 40 µM	COc1ccc(C2=NN(c3ccccc3)C(=O)C2=Cc2ccc3c(c2)OCCO3)cc1 [Compound 93]
< 10 µM	CC1=NN(c2cccc(C(=O)O)c2)C(=O)/C1=C\c1ccc2[nH]ccc2c1 [Compound 364]
< 10 µM	O=C(O)c1ccc(N2N=C(C3CC3)/C(=C/c3ccc(-n4ccnc4)cc3)C2=O)cc1 [Compound 318]
< 40 µM	COc1cc(/C=C2\C(=O)N(c3ccccc3)N=C2c2cccnc2)ccc1O [Compound 60]
10 to 20 µM	COCC1=NN(c2ccccc2)C(=O)/C1=C\c1ccc(OCc2ccccc2)c(OC)c1 [Compound 3]
< 40 µM	O=C1/C(=C\c2ccc(CO)o2)C(c2cccnc2)=NN1c1ccccc1 [Compound 64]
< 10 µM	NS(=O)(=O)c1ccc(N2N=C(C3CC3)/C(=C/c3ccc(-n4cccn4)cc3)C2=O)cc1 [Compound 110]
< 40 µM	O=C1/C(=C\c2ccc(CO)o2)C(c2ccccn2)=NN1c1ccccc1 [Compound 48]
10 to 20 µM	CCCCC1=NN(c2ccccc2)C(=O)/C1=C\c1ccc2c(c1)OCCO2 [Compound 98]
< 40 µM	COC(=O)N1CCN(c2ccc(/C=C3\C(=O)N(c4ccccc4)N=C3C)cc2)CC1 [Compound 95]
10 to 20 µM	CC1=NN(c2cccc(S(N)(=O)=O)c2)C(=O)/C1=C\c1ccc(N2CCNCC2)cc1 [Compound 184]
< 10 µM	O=C(O)c1ccc(N2N=C(c3ccoc3)/C(=C/c3ccc(N4CCC(CO)CC4)cc3)C2=O)cc1 [Compound 438]
< 40 µM	O=C(O)c1ccc(N2N=C(c3cccnc3)/C(=C/c3ccc(N4CCCC4)cc3)C2=O)cc1 [Compound 309]
10 to 20 µM	CCCCC1=NN(c2ccccc2)C(=O)/C1=C\c1ccc(O)c(OC)c1 [Compound 50]
10 to 20 µM	CC1=NN(c2cccc(S(N)(=O)=O)c2)C(=O)C1=Cc1cc2ccccc2n1C [Compound 141]
10 to 20 µM	COc1ccc(C2=NN(c3ccc(C(=O)O)cc3)C(=O)C2=Cc2ccc(N3CCN(C)CC3)cc2)cc1OC [Compound 285]
< 10 µM	O=C(O)c1ccc(N2N=C(c3ccoc3)/C(=C/c3ccc4c(c3)OCCO4)C2=O)cc1 [Compound 330]
< 10 µM	CC1=NN(c2cccc(C(=O)O)c2)C(=O)/C1=C\c1ccc2c(ccn2C(=O)c2ccccc2)c1 [Compound 529]
10 to 20 µM	CC1=NN(c2cccc(C(=O)O)c2)C(=O)/C1=C\c1ccoc1 [Compound 418]
< 40 µM	CC1=NN(c2cccc(S(N)(=O)=O)c2)C(=O)/C1=C\c1ccc(N2CCC(CO)CC2)cc1 [Compound 173]
< 40 µM	O=C1/C(=C\c2ccc(-c3ccccc3F)o2)C(Cc2ccccc2)=NN1c1ccccc1 [Compound 26]
< 40 µM	COc1ccccc1-c1ccc(/C=C2\C(=O)N(c3cccc(C(=O)O)c3)N=C2C)o1 [Compound 487]
